Results as given in US11225484B2, “Substituted octahydropyrrolo[3,4-b]pyrroles as antagonists of the muscarinic acetylcholine receptor M4” (Vanderbilt University, priority 2017, dated 2022).
pIC50: −log10 of the molar value.

Key:
Rat M4 = target: T1, Rat M4 (Rattus norvegicus, UniProt P08485); test: mAChR M4 cell-based functional assay (calcium flux, rat M4/Gqi5/CHO cells); details: for remaining activity at 30 µM: CHO, % ACh maximum at 30 μM, read-out: Emin (%) rat M4; for pIC50: antagonist mode, decrease of the response to an EC80 concentration of acetylcholine, CHO-K1 cells with Gqi5
T1 construct: expressed in transfected cells; host or cells: CHO-K1 (ATCC), co-transfected with chimeric G protein Gqi5
T1 sequence (P08485 1-478): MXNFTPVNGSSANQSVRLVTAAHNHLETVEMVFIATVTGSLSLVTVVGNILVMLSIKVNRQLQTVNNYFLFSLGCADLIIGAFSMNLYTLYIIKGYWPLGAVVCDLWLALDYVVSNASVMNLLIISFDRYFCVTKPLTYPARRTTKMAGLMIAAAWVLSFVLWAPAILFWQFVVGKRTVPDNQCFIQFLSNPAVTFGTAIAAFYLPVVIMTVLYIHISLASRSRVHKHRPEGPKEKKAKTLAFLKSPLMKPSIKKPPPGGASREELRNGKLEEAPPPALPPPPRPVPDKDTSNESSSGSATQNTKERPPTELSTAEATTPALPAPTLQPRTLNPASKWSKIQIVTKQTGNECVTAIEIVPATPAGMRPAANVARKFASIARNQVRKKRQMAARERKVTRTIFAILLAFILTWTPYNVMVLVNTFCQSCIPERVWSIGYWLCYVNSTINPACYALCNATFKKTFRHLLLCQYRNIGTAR
Description: (§1) Human or rat M4 cDNA, along with the chimeric G protein Gqi5, were transfected into Chinese hamster ovary (CHO-K1) cells purchased from the American Type Culture Collection using Lipofectamine2000. M4/Gqi5/CHO cells were grown in Ham's F-12 medium containing 10% heat-inactivated fetal bovine serum (FBS), 20 mM HEPES, 500 μg/mL G418 sulfate, and 200 μg/mL Hygromycin B.
(§2) For high throughput measurement of agonist-evoked increases in intracellular calcium, CHO-K1 cells stably expressing muscarinic receptors were plated in growth medium lacking G418 and hygromycin at 15,000 cells/20 μL/well in Greiner 384-well black-walled, tissue culture (TC)-treated, clear-bottom plates (VWR). Cells were incubated overnight at 37° C. and 5% CO2. The next day, cells were washed using an ELX 405 (BioTek) with assay buffer; the final volume was then aspirated to 20 μL. Next, 20 μL of a 2.3 μM stock of Fluo-4/acetoxymethyl ester (Invitrogen, Carlsbad, Calif.), prepared as a 2.3 mM stock in DMSO and mixed in a 1:1 ratio with 10% (w/v) Pluronic F-127 and diluted in assay buffer, was added to the wells and the cell plates were incubated for 50 min at 37° C. and 5% CO2. Dye was removed by washing with the ELX 405 and the final volume was aspirated to 20 μL. Compound master plates were formatted in a 10 point concentration-response curve (CRC) format (1:3 dilutions) in 100% DMSO with a starting concentration of 10 or 1 mM using a BRAVO liquid handler (Agilent). Test compound CRCs were then transferred to daughter plates (240 nL) using the Echo acoustic plate reformatter (Labcyte, Sunnyvale, Calif.) and then diluted into assay buffer (40 μL) to a 2× stock using a Thermo Fisher Combi (Thermo Fisher Scientific, Waltham, Mass.).
(§3) Calcium flux was measured using the Functional Drug Screening System (FDSS) 6000 or 7000 (Hamamatsu Corporation, Tokyo, Japan) as an increase in the fluorescent static ratio. Compounds were applied to cells (20 μL, 2×) using the automated system of the FDSS at 2 seconds into the protocol and the data were collected at 1 Hz. At 143 s, 10 μL of an EC20 concentration of the muscarinic receptor agonist acetylcholine was added (5×), followed by the addition of 12 μL of an EC80 concentration of acetylcholine at the 268 s time point (5×). Agonist activity was analyzed as a concentration-dependent increase in calcium mobilization upon compound addition. Positive allosteric modulator activity was analyzed as a concentration-dependent increase in the EC20 acetylcholine response. Antagonist activity was analyzed as a concentration-dependent decrease in the EC80 acetylcholine response for the purposes of the tables herein, an IC50 (inhibitory concentration 50) was calculated as a concentration-dependent decrease of the response elicited by an EC80 concentration of acetylcholine, Concentration-response curves were generated using a four-parameter logistical equation in XLFit curve fitting software (IDBS, Bridgewater, N.J.) for Excel (Microsoft, Redmond, Wash.) or Prism (GraphPad Software, Inc., San Diego, Calif.) or the Dotmatics software platform (Dotmatics, Bishop's Stortford, UK).
(§4) Compounds were synthesized as described above. Activity (IC50 and Emin) was determined in the mAChR M4 cell-based functional assay as described above and the data are shown in Table 2. The compound number corresponds to the compound numbers used in Examples 1-3.

Human M4 = target: T2, Human M4 (Homo sapiens, UniProt P08173); test: mAChR M4 cell-based functional assay (calcium flux, human M4/Gqi5/CHO cells); details: for remaining activity at 30 µM: CHO, % ACh maximum at 30 μM, read-out: Emin (%) human M4; for pIC50: antagonist mode, decrease of the response to an EC80 concentration of acetylcholine, CHO-K1 cells with Gqi5
T2 construct: expressed in transfected cells; host or cells: CHO-K1 (ATCC), co-transfected with chimeric G protein Gqi5
T2 sequence (P08173 1-479): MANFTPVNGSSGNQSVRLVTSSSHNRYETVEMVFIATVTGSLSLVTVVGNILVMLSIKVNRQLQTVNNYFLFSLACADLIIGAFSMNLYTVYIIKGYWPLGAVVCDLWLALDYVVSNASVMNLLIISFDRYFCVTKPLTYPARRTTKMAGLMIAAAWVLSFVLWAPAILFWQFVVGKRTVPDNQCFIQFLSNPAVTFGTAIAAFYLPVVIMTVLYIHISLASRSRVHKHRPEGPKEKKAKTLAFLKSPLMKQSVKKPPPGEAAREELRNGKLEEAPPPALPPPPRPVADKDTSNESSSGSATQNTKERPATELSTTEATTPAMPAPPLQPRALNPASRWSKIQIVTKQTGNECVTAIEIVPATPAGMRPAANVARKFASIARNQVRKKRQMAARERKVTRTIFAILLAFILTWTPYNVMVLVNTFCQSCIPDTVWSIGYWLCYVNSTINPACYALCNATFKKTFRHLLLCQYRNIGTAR
Description: as §1, §2, §3, §4

| remaining activity at 30 µM (Rat M4) | pIC50 (Rat M4) | remaining activity at 30 µM (Human M4) | pIC50 (Human M4) | SMILES |
| --- | --- | --- | --- | --- |
| 4.61% | 6.29 | – | – | Cc1cnn(C)c1-c1ccc(N2CCC3CN(CC45CC6CC(CC(C6)C4)C5)CC32)nn1 (stereo not drawn) [Compound 1, 5-(Adamantan-1-ylmethyl)-1-(6-(1,4-dimethyl-1H-pyrazol-5-y)pyridazin-3-yl)octahydropyrrolo[3,4-b]pyrrole] |
| 3.71% | 6.22 | 4.08% | 6.83 | Cc1cnn(C)c1-c1ccc(N2CC[C@@H]3CN(CC45CC6CC(CC(C6)C4)C5)C[C@@H]32)nn1 [Compound 21, (3aR,6aR)-5-(adamantan-1-ylmethyl)-1-(6-(1,4-dimethyl-1H-pyrazol-5-yl)pyridazin-3-yl)octahydropyrrolo[3,4-b]pyrrole] |
| 6.85% | 5.82 | 3.83% | 6.19 | Cc1cnn(C)c1-c1ccc(N2CCC3CN(CCCC(C)(C)C)CC32)nn1 (stereo not drawn) [Compound 2, 1-(6-(1,4-Dimethyl-1H-pyrazol-5-yl)pyridazin-3-yl)-5-(4,4-dimethylpentyl)octahydropyrrolo[3,4-b]pyrrole] |
| 22.7% | < 5.00 | 8.8% | 5.65 | Cc1cnn(C)c1-c1ccc(N2CCC3CN(CCC(C)(C)C)CC32)nn1 (stereo not drawn) [Compound 20, 1-(6-(1,4-dimethyl-1H-pyrazol-5-yl)pyridazin-3-yl)-5-(3,3-dimethylbutyl)octahydropyrrolo[3,4-b]pyrrole] |
| 63.1% | < 5.00 | 26.2% | < 5.00 | Cc1cccnc1CN1CC2CCN(c3ccc(-c4c(C)cnn4C)nn3)C2C1 (stereo not drawn) [Compound 4, 1-(6-(1,4-dimethyl-1H-pyrazol-5-yl)pyridazin-3-yl)-5-((3-methylpyridin-2-yl)methyl)octahydropyrrolo[3,4-b]pyrrole] |
| 4.82% | 5.72 | 4.12% | 6.34 | Cc1cnn(C)c1-c1ccc(N2CCC3CN(CC4C5CC6CC(C5)CC4C6)CC32)nn1 (stereo not drawn) [Compound 10, 5-(adamantan-2-ylmethyl)-1-(6-(1,4-dimethyl-1H-pyrazol-5-yl)pyridazin-3-yl)octahydropyrrolo[3,4-b]pyrrole] |
| 28.4% | < 5.00 | 7.23% | 5.67 | CCCCCCN1CC2CCN(c3ccc(-c4c(C)cnn4C)nn3)C2C1 (stereo not drawn) [Compound 13, 1-(6-(1,4-dimethyl-1H-pyrazol-5-yl)pyridazin-3-yl)-5-hexyloctahydropyrrolo[3,4-b]pyrrole] |
| – | – | 46.7% | < 5.00 | Cc1cnn(C)c1-c1ccc(N2CCC3CN(Cc4ccccc4)CC32)nn1 (stereo not drawn) [Compound 5, 5-benzyl-1-(6-(1,4-dimethyl-1H-pyrazol-5-yl)pyridazin-3-yl)octahydropyrrolo[3,4-b]pyrrole] |
| 6.32% | 5.63 | 4.33% | 6.30 | Cc1cnn(C)c1-c1ccc(N2CCC3CN(CCC(C)c4ccccc4)CC32)nn1 (stereo not drawn) [Compound 9, 1-(6-(1,4-dimethyl-1H-pyrazol-5-yl)pyridazin-3-yl)-5-(3-phenylbutyl)octahydropyrrolo[3,4-b]pyrrole] |
| 4.52% | 6.49 | 3.91% | 6.99 | Cc1cnn(C)c1-c1ccc(N2CC[C@H]3CN(CC45CC6CC(CC(C6)C4)C5)C[C@H]32)nn1 [Compound 23, (3aS,6aS)-5-(adamantan-1-ylmethyl)-1-(6-(1,4-dimethyl-1H-pyrazol-5-yl)pyridazin-3-yl)octahydropyrrolo[3,4-b]pyrrole] |
| 69.7% | < 5.00 | 36.1% | < 5.00 | Cc1cnn(C)c1-c1ccc(N2CCC3CN(CC4CCOCC4)CC32)nn1 (stereo not drawn) [Compound 22, 1-(6-(1,4-dimethyl-1H-pyrazol-5-yl)pyridazin-3-yl)-5-((tetrahydro-2H-pyran-4-yl)methyl)octahydropyrrolo[3,4-b]pyrrole] |
| 48.3% | < 5.00 | 8.96% | 5.04 | Cc1cnn(C)c1-c1ccc(N2CCC3CN(CC(c4ccccc4)c4ccccc4)CC32)nn1 (stereo not drawn) [Compound 14, 1-(6-(1,4-dimethyl-1H-pyrazol-5-yl)pyridazin-3-yl)-5-(2,2-diphenylethyl)octahydropyrrolo[3,4-b]pyrrole] |
| 55.5% | < 5.00 | 15.1% | < 5.00 | Cc1cnn(C)c1-c1ccc(N2CCC3CN(CC(C)c4ccccc4)CC32)nn1 (stereo not drawn) [Compound 11, 1-(6-(1,4-dimethyl-1H-pyrazol-5-yl)pyridazin-3-yl)-5-(2-phenylpropyl)octahydropyrrolo[3,4-b]pyrrole] |
| 26.2% | < 5.00 | 6.12% | 5.84 | Cc1cnn(C)c1-c1ccc(N2CCC3CN(CCCc4ccccc4)CC32)nn1 (stereo not drawn) [Compound 7, 1-(6-(1,4-dimethyl-1H-pyrazol-5-yl)pyridazin-3-yl)-5-(3-phenylpropyl)octahydropyrrolo[3,4-b]pyrrole] |
| 32.4% | < 5.00 | 6.61% | 5.47 | Cc1cnn(C)c1-c1ccc(N2CCC3CN(CC4CCN(Cc5ccccc5)CC4)CC32)nn1 (stereo not drawn) [Compound 8, 5-((1-benzylpiperidin-4-yl)methyl)-1-(6-(1,4-dimethyl-1H-pyrazol-5-yl)pyridazin-3-yl)octahydropyrrolo[3,4-b]pyrrole] |
| 3.98% | 5.77 | 4.18% | 6.05 | CCc1ccncc1-c1ccc(N2CCC3CN(CC45CC6CC(CC(C6)C4)C5)CC32)nn1 (stereo not drawn) [Compound 15, 5-(adamantan-1-ylmethyl)-1-(6-(4-ethylpyridin-3-yl)pyridazin-3-yl)octahydropyrrolo[3,4-b]pyrrole] |
